Values joined by “and” are separate entries in the source; they are usually repeats but may differ in a detail not shown here. Equal entries are not always repeated. Where two headings read alike, the source gives them in different places.
What was measured:
[1] = tested on: transgenic soybean expressing mutated PPO; experiment: Soybean segregating T1 individuals, greenhouse spray test (injury 0-9); format: in vivo, Glycine max; conditions: 1 week after treatment
[2] = tested on: transgenic Arabidopsis thaliana plants expressing wildtype or mutated PPO; experiment: Germination / growth inhibition assay of transgenic Arabidopsis T2 seeds in 48-well plates; conditions: growth inhibition seven to ten days after seeding
[3] = tested on: transgenic soybean expressing mutated PPO; format: in vivo, Glycine max; conditions: T1 soybean, field, 3 days after treatment; for injury (1-5 point scale): benzoxazin 50 g ai/ha; as to injury (1-5 point scale): key: 1: no obvious damage (no phytotoxicity); 2: minor amount of leaf damage, plant will survive; 3: moderate amount of leaf damage, plant will survive; 4: severe amount of leaf damage, plant will survive; 5: no surviving plants - all plants dead/dying
[4] = transgenic Arabidopsis AMATU_PPO2_F420I
[5] = transgenic Arabidopsis AMATU_PPO2_F420L
[6] = transgenic Arabidopsis AMATU_PPO2_F420M
[7] = transgenic Arabidopsis AMATU_PPO2_R128A_F420I
[8] = transgenic Arabidopsis AMATU_PPO2_R128A_F420L
[9] = transgenic Arabidopsis AMATU_PPO2_R128A_F420M
[10] = transgenic Arabidopsis AMATU_PPO2_R128L
[11] = transgenic Arabidopsis AMATU_PPO2_dG210
[12] = transgenic Arabidopsis AMATU_PPO2_dG210_R128L
[13] = transgenic Arabidopsis AMATU_PPO2_wt

With `CS(=O)(=O)NC(=O)c1cc(Oc2ccc(C(F)(F)F)cc2Cl)ccc1[N+](=O)[O-]` [Fomesafen, fomesafen] the “injury (0-9 point scale)” value ([1]; SDS10791 AmtuPPX2L R128A_F420I, Fomesafen 600 g ai/ha) was 6 and 3 (2×) and 1 (3×) and 4 and 2, the “injury (0-9 point scale)” value ([1]; SDS-10642 AmtuPPX2L R128A_F420L, Fomesafen 600 g ai/ha) was 0 (4×) and 1 (4×) and the “injury (0-9 point scale)” value ([1]; SDS-10648 AmtuPPX2L R128A_F420I, Fomesafen 600 g ai/ha) was 5 and 3 (6×) and 4. For the same compound, the “injury (0-9 point scale)” value ([1]; SDS-10652 AmtuPPX2L L397D_F420V, Fomesafen 600 g ai/ha) was 1 (2×) and 2 (2×) and 0 (3×) and 4, the “injury (0-9 point scale)” value ([1]; SDS-10787 AmtuPPX2L R128A_F420L, Fomesafen 600 g ai/ha) was 1 (2×) and 0 (2×) and 2 (2×) and 5 and 3 and the “injury (0-9 point scale)” value ([1]; SDS-10985 AmtuPPX2L R128A_F420M, Fomesafen 600 g ai/ha) was 3 (3×) and 0 (2×) and 1 (2×) and 5. For the same compound, the “injury (0-9 point scale)” value ([1]; SDS-10990 AmtuPPX2L R128A_F420M, Fomesafen 600 g ai/ha) was 1 (2×) and 3 and 0 (2×) and 4 and 5 (2×), the “injury (0-9 point scale)” value ([1]; SDS-11034 AmtuPPX2L R128A_F420V, Fomesafen 600 g ai/ha) was 2 (2×) and 0 (3×) and 1 (3×) and the “injury (0-9 point scale)” value ([1]; wild type, Fomesafen 600 g ai/ha) was 5 (4×) and 4 (4×). The “Relative tolerance rate as compared to a non-transgenic Arabidopsis plant (non-transgenic = 1.0)” value (from here on “Relative tolerance rate … (non-transgenic = 1.0)”) [2, 4] was 18, the “Relative tolerance rate … (non-transgenic = 1.0)” value [2, 5] was 23 and the “Relative tolerance rate … (non-transgenic = 1.0)” value [2, 6] was 29. For the same compound, the “Relative tolerance rate … (non-transgenic = 1.0)” value [2, 7] was 29, the “Relative tolerance rate … (non-transgenic = 1.0)” value [2, 8] was 29 and the “Relative tolerance rate … (non-transgenic = 1.0)” value [2, 9] was 29. For the same compound, the “Relative tolerance rate … (non-transgenic = 1.0)” value [2, 10] was 27, the “Relative tolerance rate … (non-transgenic = 1.0)” value [2, 11] was 29 and the “Relative tolerance rate … (non-transgenic = 1.0)” value [2, 12] was 29. The “Relative tolerance rate … (non-transgenic = 1.0)” value [2, 13] was 19.
In the case of `CCOc1cc(Oc2ccc(C(F)(F)F)cc2Cl)ccc1[N+](=O)[O-]` [Oxyfluorfen], the “injury (0-9 point scale)” value ([1]; SDS10791 AmtuPPX2L R128A_F420I, Oxyfluorfen 600 g ai/ha) is reported as 4 (3×) and 8 and 5 (3×) and 3, the “injury (0-9 point scale)” value ([1]; SDS10791 AmtuPPX2L R128A_F420I, Oxyfluorfen 1200 g ai/ha) is reported as 9 (2×) and 4 (2×) and 5 (4×) and the “injury (0-9 point scale)” value ([1]; SDS-10642 AmtuPPX2L R128A_F420L, Oxyfluorfen 600 g ai/ha) is reported as 2 (3×) and 4 and 3 (3×) and 8. For the same compound, the “injury (0-9 point scale)” value ([1]; SDS-10648 AmtuPPX2L R128A_F420I, Oxyfluorfen 600 g ai/ha) was 5 and 7 and 6 (2×) and 8 (2×) and 9 and 3, the “injury (0-9 point scale)” value ([1]; SDS-10648 AmtuPPX2L R128A_F420I, Oxyfluorfen 1200 g ai/ha) was 5 (3×) and 9 (4×) and 4 and the “injury (0-9 point scale)” value ([1]; SDS-10652 AmtuPPX2L L397D_F420V, Oxyfluorfen 600 g ai/ha) was 4 (3×) and 5 and 6 (2×) and 9. For the same compound, the “injury (0-9 point scale)” value ([1]; SDS-10787 AmtuPPX2L R128A_F420L, Oxyfluorfen 600 g ai/ha) was 6 (3×) and 5 (2×) and 8, the “injury (0-9 point scale)” value ([1]; SDS-10985 AmtuPPX2L R128A_F420M, Oxyfluorfen 600 g ai/ha) was 1 and 3 (3×) and 4 (3×) and 9 and the “injury (0-9 point scale)” value ([1]; SDS-10985 AmtuPPX2L R128A_F420M, Oxyfluorfen 1200 g ai/ha) was 5 (3×) and 4 (3×) and 8 (2×). The “injury (0-9 point scale)” value ([1]; SDS-10990 AmtuPPX2L R128A_F420M, Oxyfluorfen 600 g ai/ha) was 4 (4×) and 8 and 3 and 9 and 5, the “injury (0-9 point scale)” value ([1]; SDS-10990 AmtuPPX2L R128A_F420M, Oxyfluorfen 1200 g ai/ha) was 9 and 5 (5×) and 4 (2×) and the “injury (0-9 point scale)” value ([1]; SDS-11034 AmtuPPX2L R128A_F420V, Oxyfluorfen 600 g ai/ha) was 4 (3×) and 9 and 5 (3×). For the same compound, the “injury (0-9 point scale)” value ([1]; wild type, Oxyfluorfen 600 g ai/ha) was 8 (3×) and 7 (3×) and 9 (2×).
With `C#CCN1C(=O)COc2cc(F)c(N3C(=O)C4=C(CCCC4)C3=O)cc21` [Flumioxazin, flumioxazin] the “injury (0-9 point scale)” value ([1]; SDS10791 AmtuPPX2L R128A_F420I, Flumioxazin 150 g ai/ha) was 3 (5×) and 1 (3×), the “injury (0-9 point scale)” value ([1]; SDS-10642 AmtuPPX2L R128A_F420L, Flumioxazin 150 g ai/ha) was 3 (3×) and 2 (2×) and 1 (2×) and 9 and the “injury (0-9 point scale)” value ([1]; SDS-10648 AmtuPPX2L R128A_F420I, Flumioxazin 150 g ai/ha) was 9 (5×) and 5 (3×). For the same compound, the “injury (0-9 point scale)” value ([1]; SDS-10652 AmtuPPX2L L397D_F420V, Flumioxazin 150 g ai/ha) was 9 and 6 (3×) and 5 (2×) and 4 (2×), the “injury (0-9 point scale)” value ([1]; SDS-10787 AmtuPPX2L R128A_F420L, Flumioxazin 150 g ai/ha) was 9 (2×) and 5 (4×) and 4 (2×) and the “injury (0-9 point scale)” value ([1]; SDS-10985 AmtuPPX2L R128A_F420M, Flumioxazin 150 g ai/ha) was 9 (3×) and 6 (2×) and 4 (2×) and 5. The “injury (0-9 point scale)” value ([1]; SDS-10990 AmtuPPX2L R128A_F420M, Flumioxazin 150 g ai/ha) was 6 (5×) and 5 (2×) and 9, the “injury (0-9 point scale)” value ([1]; SDS-11034 AmtuPPX2L R128A_F420V, Flumioxazin 150 g ai/ha) was 5 (3×) and 4 and 6 (2×) and 9 and 3 and the “injury (0-9 point scale)” value ([1]; wild type, Flumioxazin 150 g ai/ha) was 9.
With `C1=Cc2ccccc2ON1` [benzoxazin] the “Injury rating (1-5 point scale)” value ([3]; SDS-10562 LTM377-1 AmtuPPX2L_dG210, benzoxazin (50 gai/ha)) was 3, the “Injury rating (1-5 point scale)” value ([3]; SDS-10562 LTM377-1 AmtuPPX2L_dG210, benzoxazin (100 gai/ha)) was 3 and the “Injury rating (1-5 point scale)” value ([3]; SDS-10566 LTM377-1 AmtuPPX2L_dG210, benzoxazin (50 gai/ha)) was 3. The “Injury rating (1-5 point scale)” value ([3]; SDS-10566 LTM377-1 AmtuPPX2L_dG210, benzoxazin (100 gai/ha)) was 3, the “injury (1-5 point scale)” value ([3]; SDS-10648 AmtuPPX2L R128A_F420I) was 3 and the “Injury rating (1-5 point scale)” value ([3]; SDS-10656 LTM377-1 AmtuPPX2L_dG210, benzoxazin (50 gai/ha)) was 4. For the same compound, the “Injury rating (1-5 point scale)” value ([3]; SDS-10656 LTM377-1 AmtuPPX2L_dG210, benzoxazin (100 gai/ha)) was 4, the “injury (1-5 point scale)” value ([3]; SDS-10791 AmtuPPX2L R128A_F420I) was 2 and the “Injury rating (1-5 point scale)” value ([3]; SDS-10998 LTM387-1 AmtuPPX2L_R128A_F420V, benzoxazin (50 gai/ha)) was 2.5. For the same compound, the “Injury rating (1-5 point scale)” value ([3]; SDS-10998 LTM387-1 AmtuPPX2L_R128A_F420V, benzoxazin (100 gai/ha)) was 2.5, the “injury (1-5 point scale)” value ([3]; SDS-11014 AmtuPPX2L R128A_F420I) was 2 and the “injury (1-5 point scale)” value ([3]; SDS-11034 AmtuPPX2L L397D_F420V) was 2. For the same compound, the “Injury rating (1-5 point scale)” value ([3]; SDS-11034 LTM387-1 AmtuPPX2L_R128A_F420V, benzoxazin (50 gai/ha)) was 2, the “Injury rating (1-5 point scale)” value ([3]; SDS-11034 LTM387-1 AmtuPPX2L_R128A_F420V, benzoxazin (100 gai/ha)) was 2 and the “injury (1-5 point scale)” value ([3]; SDS-11035 AmtuPPX2L R128A_F420V) was 2. For the same compound, the “Injury rating (1-5 point scale)” value ([3]; SDS-11035 LTM387-1 AmtuPPX2L_R128A_F420V, benzoxazin (50 gai/ha)) was 2, the “Injury rating (1-5 point scale)” value ([3]; SDS-11035 LTM387-1 AmtuPPX2L_R128A_F420V, benzoxazin (100 gai/ha)) was 2 and the “injury (1-5 point scale)” value ([3]; SDS-11052 AmtuPPX2L R128A_F420M) was 3. For the same compound, the “Injury rating (1-5 point scale)” value ([3]; SDS-11105 LTM387-1 AmtuPPX2L_R128A_F420V, benzoxazin (50 gai/ha)) was 3, the “Injury rating (1-5 point scale)” value ([3]; SDS-11105 LTM387-1 AmtuPPX2L_R128A_F420V, benzoxazin (100 gai/ha)) was 3 and the “Injury rating (1-5 point scale)” value ([3]; SDS-11110 LTM387-1 AmtuPPX2L_R128A_F420V, benzoxazin (50 gai/ha)) was 3. For the same compound, the “Injury rating (1-5 point scale)” value ([3]; SDS-11110 LTM387-1 AmtuPPX2L_R128A_F420V, benzoxazin (100 gai/ha)) was 3, the “Injury rating (1-5 point scale)” value ([3]; Wildtype Jake, benzoxazin (50 gai/ha)) was 5 and the “Injury rating (1-5 point scale)” value ([3]; Wildtype Jake, benzoxazin (100 gai/ha)) was 5. The “injury (1-5 point scale)” value ([3]; wild type) was 5.
`CCOC(=O)C(C)OC(=O)c1cc(Oc2ccc(C(F)(F)F)cc2Cl)ccc1[N+](=O)[O-]` (stereo not shown) [Lactofen, lactofen] was tested, and the “Relative tolerance rate … (non-transgenic = 1.0)” value [2, 4] was 17, the “Relative tolerance rate … (non-transgenic = 1.0)” value [2, 5] was 19 and the “Relative tolerance rate … (non-transgenic = 1.0)” value [2, 6] was 29. For the same compound, the “Relative tolerance rate … (non-transgenic = 1.0)” value [2, 7] was 27, the “Relative tolerance rate … (non-transgenic = 1.0)” value [2, 8] was 29 and the “Relative tolerance rate … (non-transgenic = 1.0)” value [2, 9] was 29. The “Relative tolerance rate … (non-transgenic = 1.0)” value [2, 10] was 22, the “Relative tolerance rate … (non-transgenic = 1.0)” value [2, 11] was 19 and the “Relative tolerance rate … (non-transgenic = 1.0)” value [2, 12] was 29. For the same compound, the “Relative tolerance rate … (non-transgenic = 1.0)” value [2, 13] was 8.

From patent US11866720B2, “Transgenic or non-transgenic plants with mutated protoporphyrinogen oxidase having increased tolerance to herbicides” (priority 2013, dated 2024)
